Columns and labels:
Assay in all cases: KINOMEscan competition binding
Details in all cases: compound 10.0 µM
PHKG2 (human) = PHKG2 (human) (UniProt P15735)
CSF1R (human) = CSF1R (human) (UniProt P07333)
MAPK4 (human) = MAPK4 (human) (UniProt P31152)
PRKACA (human) = PRKACA (human) (UniProt P17612)
INSR (human) = INSR (human) (UniProt P06213)
MAP3K9 (human) = MAP3K9 (human) (UniProt P80192)
INSRR (human) = INSRR (human) (UniProt P14616)
FYN (human) = FYN (human) (UniProt P06241)
BMPR1A (human) = BMPR1A (human) (UniProt P36894)
ACVR2B (human) = ACVR2B (human) (UniProt Q13705)
DAPK2 (human) = DAPK2 (human) (UniProt Q9UIK4)
ROCK2 (human) = ROCK2 (human) (UniProt O75116)
ULK2 (human) = ULK2 (human) (UniProt Q8IYT8)
CSNK1A1L (human) = CSNK1A1L (human) (UniProt Q8N752)
HIPK1 (human) = HIPK1 (human) (UniProt Q86Z02)
AURKA (human) = AURKA (human) (UniProt O14965)
CAMK2A (human) = CAMK2A (human) (UniProt Q9UQM7)
MAPK14 (human) = MAPK14 (human) (UniProt Q16539)
FRK (human) = FRK (human) (UniProt P42685)
CLK3 (human) = CLK3 (human) (UniProt P49761)
DCLK1 (human) = DCLK1 (human) (UniProt O15075)
PAK7 (human) = PAK7 (human) (UniProt Q9P286)
PKMYT1 (human) = PKMYT1 (human) (UniProt Q99640)
ADCK3 (human) = ADCK3 (human) (UniProt Q8NI60)
CAMK2G (human) = CAMK2G (human) (UniProt Q13555)
TLK1 (human) = TLK1 (human) (UniProt Q9UKI8)
TLK1 (human), sequence (Q9UKI8 whole entry, looked up): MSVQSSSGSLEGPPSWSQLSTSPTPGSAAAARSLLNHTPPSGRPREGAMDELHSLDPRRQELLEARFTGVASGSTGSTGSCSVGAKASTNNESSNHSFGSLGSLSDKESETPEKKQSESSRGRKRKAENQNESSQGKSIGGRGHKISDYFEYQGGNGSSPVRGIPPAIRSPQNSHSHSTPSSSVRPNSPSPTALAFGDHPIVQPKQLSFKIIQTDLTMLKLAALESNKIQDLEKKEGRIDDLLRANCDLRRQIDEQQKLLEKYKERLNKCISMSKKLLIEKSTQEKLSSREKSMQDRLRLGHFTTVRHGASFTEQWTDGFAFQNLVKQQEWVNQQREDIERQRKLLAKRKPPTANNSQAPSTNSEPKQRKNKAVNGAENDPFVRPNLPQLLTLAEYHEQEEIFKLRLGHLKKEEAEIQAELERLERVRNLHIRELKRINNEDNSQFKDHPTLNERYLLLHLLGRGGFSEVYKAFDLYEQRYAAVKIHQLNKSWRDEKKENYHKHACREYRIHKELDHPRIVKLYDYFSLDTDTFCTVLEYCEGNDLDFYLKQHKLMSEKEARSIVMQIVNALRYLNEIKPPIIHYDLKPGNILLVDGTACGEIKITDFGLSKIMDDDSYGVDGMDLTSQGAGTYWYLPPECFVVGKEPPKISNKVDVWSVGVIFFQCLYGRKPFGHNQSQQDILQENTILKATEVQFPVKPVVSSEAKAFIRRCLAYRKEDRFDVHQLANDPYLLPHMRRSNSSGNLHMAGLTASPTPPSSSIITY

MAP2K3 (human) = MAP2K3 (human) (UniProt P46734)
MAP3K7 (human) = MAP3K7 (human) (UniProt O43318)
EPHA7 (human) = EPHA7 (human) (UniProt Q15375)
BRSK1 (human) = BRSK1 (human) (UniProt Q8TDC3)
BRSK1 (human), sequence (Q8TDC3 whole entry, looked up): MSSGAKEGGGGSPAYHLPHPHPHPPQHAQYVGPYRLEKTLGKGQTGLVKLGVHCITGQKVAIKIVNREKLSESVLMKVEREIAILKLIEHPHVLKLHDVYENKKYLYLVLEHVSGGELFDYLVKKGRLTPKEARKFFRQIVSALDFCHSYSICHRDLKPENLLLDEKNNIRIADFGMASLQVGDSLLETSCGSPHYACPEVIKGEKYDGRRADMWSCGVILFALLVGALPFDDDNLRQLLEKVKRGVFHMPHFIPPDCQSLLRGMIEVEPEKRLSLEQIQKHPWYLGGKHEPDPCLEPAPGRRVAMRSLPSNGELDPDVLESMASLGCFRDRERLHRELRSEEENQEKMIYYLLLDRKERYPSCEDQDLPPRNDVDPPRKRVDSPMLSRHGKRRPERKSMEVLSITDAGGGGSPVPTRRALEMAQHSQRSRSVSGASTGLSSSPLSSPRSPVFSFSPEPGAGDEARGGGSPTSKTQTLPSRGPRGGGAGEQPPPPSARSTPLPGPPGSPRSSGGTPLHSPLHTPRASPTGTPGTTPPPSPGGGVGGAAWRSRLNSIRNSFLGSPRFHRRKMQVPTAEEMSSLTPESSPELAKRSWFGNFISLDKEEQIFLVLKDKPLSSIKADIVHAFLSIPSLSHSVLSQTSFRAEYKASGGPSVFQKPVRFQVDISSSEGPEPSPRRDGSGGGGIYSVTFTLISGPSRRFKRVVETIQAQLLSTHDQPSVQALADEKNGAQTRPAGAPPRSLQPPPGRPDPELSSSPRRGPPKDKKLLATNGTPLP

DDR2 (human) = DDR2 (human) (UniProt Q16832)
RPS6KA5 KD2 (human) = RPS6KA5 KD2 (human) (UniProt O75582)
SIK2 (human) = SIK2 (human) (UniProt Q9H0K1)
EPHA4 (human) = EPHA4 (human) (UniProt P54764)
LIMK2 (human) = LIMK2 (human) (UniProt P53671)
TGFBR2 (human) = TGFBR2 (human) (UniProt P37173)
TGFBR2 (human), sequence (P37173 whole entry, looked up): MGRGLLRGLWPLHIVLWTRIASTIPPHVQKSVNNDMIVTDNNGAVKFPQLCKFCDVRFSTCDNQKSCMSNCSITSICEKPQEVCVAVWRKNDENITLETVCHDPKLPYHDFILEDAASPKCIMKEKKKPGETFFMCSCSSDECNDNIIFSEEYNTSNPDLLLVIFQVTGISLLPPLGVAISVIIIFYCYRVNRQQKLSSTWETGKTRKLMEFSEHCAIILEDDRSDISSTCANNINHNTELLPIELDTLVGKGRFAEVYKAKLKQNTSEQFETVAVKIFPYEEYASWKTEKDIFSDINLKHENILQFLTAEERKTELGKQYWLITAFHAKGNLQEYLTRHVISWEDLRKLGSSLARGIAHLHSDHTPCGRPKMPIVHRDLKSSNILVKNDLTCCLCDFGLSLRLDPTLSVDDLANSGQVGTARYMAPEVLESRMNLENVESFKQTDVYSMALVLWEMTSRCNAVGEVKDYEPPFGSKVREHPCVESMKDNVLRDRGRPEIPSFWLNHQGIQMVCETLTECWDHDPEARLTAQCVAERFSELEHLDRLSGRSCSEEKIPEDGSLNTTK

FLT3 (human) = FLT3 (human) (UniProt P36888)
PLK3 (human) = PLK3 (human) (UniProt Q9H4B4)
PLK3 (human), sequence (Q9H4B4 whole entry, looked up): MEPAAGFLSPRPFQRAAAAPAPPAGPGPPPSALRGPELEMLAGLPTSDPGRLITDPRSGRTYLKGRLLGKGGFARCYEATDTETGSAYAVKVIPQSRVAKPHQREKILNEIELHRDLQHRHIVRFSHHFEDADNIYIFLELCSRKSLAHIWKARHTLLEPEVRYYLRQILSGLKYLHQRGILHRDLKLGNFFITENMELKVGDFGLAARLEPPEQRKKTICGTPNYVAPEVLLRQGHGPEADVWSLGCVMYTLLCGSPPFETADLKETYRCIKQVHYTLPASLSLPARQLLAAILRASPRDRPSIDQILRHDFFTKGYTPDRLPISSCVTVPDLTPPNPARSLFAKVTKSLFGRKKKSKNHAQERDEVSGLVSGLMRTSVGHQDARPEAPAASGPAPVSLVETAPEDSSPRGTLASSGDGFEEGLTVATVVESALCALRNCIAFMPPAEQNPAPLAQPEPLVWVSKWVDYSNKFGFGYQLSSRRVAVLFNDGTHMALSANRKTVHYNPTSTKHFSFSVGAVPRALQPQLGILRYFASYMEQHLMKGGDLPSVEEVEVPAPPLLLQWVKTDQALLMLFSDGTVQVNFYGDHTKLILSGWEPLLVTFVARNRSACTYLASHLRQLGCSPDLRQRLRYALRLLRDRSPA

STK11 (human) = STK11 (human) (UniProt Q15831)
STK11 (human), sequence (Q15831 whole entry, looked up): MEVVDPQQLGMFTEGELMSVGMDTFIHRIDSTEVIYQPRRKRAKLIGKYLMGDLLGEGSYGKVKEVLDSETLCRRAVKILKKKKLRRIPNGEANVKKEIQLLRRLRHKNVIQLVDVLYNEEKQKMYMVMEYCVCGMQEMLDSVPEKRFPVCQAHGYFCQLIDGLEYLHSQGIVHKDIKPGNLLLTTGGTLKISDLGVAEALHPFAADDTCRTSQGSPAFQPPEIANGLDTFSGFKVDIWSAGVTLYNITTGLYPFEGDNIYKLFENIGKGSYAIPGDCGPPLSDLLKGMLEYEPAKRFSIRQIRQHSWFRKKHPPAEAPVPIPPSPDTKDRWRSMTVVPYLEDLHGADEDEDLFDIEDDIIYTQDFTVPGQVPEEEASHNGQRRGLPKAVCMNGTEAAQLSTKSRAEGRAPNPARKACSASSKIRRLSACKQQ

MAPK7 (human) = MAPK7 (human) (UniProt Q13164)

MAPK4 (human), sequence (P31152 whole entry, looked up): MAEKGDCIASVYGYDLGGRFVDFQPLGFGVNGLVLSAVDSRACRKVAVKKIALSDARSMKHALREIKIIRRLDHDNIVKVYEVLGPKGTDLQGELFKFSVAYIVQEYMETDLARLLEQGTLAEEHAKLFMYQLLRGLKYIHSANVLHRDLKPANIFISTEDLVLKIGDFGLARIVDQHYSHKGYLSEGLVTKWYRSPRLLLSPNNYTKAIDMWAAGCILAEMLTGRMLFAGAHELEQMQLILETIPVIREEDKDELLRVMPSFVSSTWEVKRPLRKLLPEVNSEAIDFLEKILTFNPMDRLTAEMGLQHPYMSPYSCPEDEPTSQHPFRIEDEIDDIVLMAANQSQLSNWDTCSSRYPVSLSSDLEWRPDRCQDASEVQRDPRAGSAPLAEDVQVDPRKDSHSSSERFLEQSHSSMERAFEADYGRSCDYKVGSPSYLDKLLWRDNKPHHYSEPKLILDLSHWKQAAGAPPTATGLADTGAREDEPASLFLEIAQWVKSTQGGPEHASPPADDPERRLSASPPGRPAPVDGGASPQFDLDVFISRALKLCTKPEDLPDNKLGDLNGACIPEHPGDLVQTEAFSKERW
INSRR (human), sequence (P14616 whole entry, looked up): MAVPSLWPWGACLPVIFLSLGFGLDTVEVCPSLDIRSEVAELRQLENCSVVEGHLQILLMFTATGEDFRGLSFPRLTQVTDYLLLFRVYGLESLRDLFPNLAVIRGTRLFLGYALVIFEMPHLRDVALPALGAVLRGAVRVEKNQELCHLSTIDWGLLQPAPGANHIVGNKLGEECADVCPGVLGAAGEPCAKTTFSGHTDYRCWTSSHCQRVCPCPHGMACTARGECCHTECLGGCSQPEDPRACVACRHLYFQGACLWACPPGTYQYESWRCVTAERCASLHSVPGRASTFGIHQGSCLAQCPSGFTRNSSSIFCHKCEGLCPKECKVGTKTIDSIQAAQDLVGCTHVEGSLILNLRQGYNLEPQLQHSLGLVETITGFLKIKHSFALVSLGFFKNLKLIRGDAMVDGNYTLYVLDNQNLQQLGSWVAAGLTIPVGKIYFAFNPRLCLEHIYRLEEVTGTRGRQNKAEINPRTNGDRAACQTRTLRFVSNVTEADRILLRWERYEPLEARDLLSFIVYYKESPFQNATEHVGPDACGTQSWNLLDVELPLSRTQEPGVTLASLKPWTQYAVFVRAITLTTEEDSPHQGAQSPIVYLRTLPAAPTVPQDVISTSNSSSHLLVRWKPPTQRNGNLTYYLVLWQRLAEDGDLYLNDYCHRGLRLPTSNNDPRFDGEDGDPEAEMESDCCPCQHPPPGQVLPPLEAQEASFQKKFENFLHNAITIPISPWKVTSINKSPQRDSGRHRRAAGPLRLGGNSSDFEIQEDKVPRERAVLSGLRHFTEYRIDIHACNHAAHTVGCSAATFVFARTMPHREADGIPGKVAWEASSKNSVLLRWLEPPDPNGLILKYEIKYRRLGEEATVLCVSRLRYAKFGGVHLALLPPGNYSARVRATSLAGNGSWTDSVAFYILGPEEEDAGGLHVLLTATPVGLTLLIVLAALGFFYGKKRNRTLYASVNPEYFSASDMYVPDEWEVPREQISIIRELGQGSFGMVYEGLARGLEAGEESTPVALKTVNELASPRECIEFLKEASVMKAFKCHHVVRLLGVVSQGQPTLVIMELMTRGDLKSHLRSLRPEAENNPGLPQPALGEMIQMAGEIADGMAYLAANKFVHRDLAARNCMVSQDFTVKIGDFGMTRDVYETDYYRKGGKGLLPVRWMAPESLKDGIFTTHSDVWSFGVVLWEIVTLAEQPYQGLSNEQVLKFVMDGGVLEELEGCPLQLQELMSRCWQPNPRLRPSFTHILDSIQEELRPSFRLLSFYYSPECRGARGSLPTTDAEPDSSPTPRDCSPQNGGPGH

SMILES	kinase still bound, per cent of control (PHKG2 (human))	kinase still bound, per cent of control (CSF1R (human))	kinase still bound, per cent of control (MAPK4 (human))	kinase still bound, per cent of control (PRKACA (human))	kinase still bound, per cent of control (INSR (human))	kinase still bound, per cent of control (MAP3K9 (human))	kinase still bound, per cent of control (INSRR (human))	kinase still bound, per cent of control (FYN (human))	kinase still bound, per cent of control (BMPR1A (human))	kinase still bound, per cent of control (ACVR2B (human))	kinase still bound, per cent of control (DAPK2 (human))	kinase still bound, per cent of control (ROCK2 (human))	kinase still bound, per cent of control (ULK2 (human))	kinase still bound, per cent of control (CSNK1A1L (human))	kinase still bound, per cent of control (HIPK1 (human))	kinase still bound, per cent of control (AURKA (human))	kinase still bound, per cent of control (CAMK2A (human))	kinase still bound, per cent of control (MAPK14 (human))	kinase still bound, per cent of control (FRK (human))	kinase still bound, per cent of control (CLK3 (human))	also measured
COc1cc(N2CCN(C)CC2)ccc1Nc1nc(N)c(C(=O)c2c(Cl)cccc2Cl)s1	43%	67%	90%	91%	94%	100%	100%	89%	100%	92%	86%	88%	72%	100%	69%	100%	20%	94%	43%	2%	kinase still bound, per cent of control (DCLK1 (human)): 3%; kinase still bound, per cent of control (PAK7 (human)): 63%; kinase still bound, per cent of control (PKMYT1 (human)): 100%; kinase still bound, per cent of control (ADCK3 (human)): 93%; kinase still bound, per cent of control (CAMK2G (human)): 17%; kinase still bound, per cent of control (TLK1 (human)): 86%; kinase still bound, per cent of control (MAP2K3 (human)): 79%; kinase still bound, per cent of control (MAP3K7 (human)): 78%; kinase still bound, per cent of control (EPHA7 (human)): 88%; kinase still bound, per cent of control (BRSK1 (human)): 91%; kinase still bound, per cent of control (DDR2 (human)): 100%; kinase still bound, per cent of control (RPS6KA5 KD2 (human)): 96%; kinase still bound, per cent of control (SIK2 (human)): 100%; kinase still bound, per cent of control (EPHA4 (human)): 90%; kinase still bound, per cent of control (LIMK2 (human)): 94%; kinase still bound, per cent of control (TGFBR2 (human)): 92%; kinase still bound, per cent of control (FLT3 (human)): 96%; kinase still bound, per cent of control (PLK3 (human)): 88%; kinase still bound, per cent of control (STK11 (human)): 100%; kinase still bound, per cent of control (MAPK7 (human)): 14%
Cc1cc([C@@H](C)Nc2ccccc2C(=O)O)c2nc(N3CCOCC3)cc(=O)n2c1	100%	94%	98%	100%	100%	91%	100%	100%	97%	100%	92%	91%	100%	100%	100%	100%	75%	97%	83%	100%	kinase still bound, per cent of control (DCLK1 (human)): 78%; kinase still bound, per cent of control (PAK7 (human)): 99%; kinase still bound, per cent of control (PKMYT1 (human)): 100%; kinase still bound, per cent of control (ADCK3 (human)): 86%; kinase still bound, per cent of control (CAMK2G (human)): 98%; kinase still bound, per cent of control (TLK1 (human)): 96%; kinase still bound, per cent of control (MAP2K3 (human)): 100%; kinase still bound, per cent of control (MAP3K7 (human)): 89%; kinase still bound, per cent of control (EPHA7 (human)): 89%; kinase still bound, per cent of control (BRSK1 (human)): 99%; kinase still bound, per cent of control (DDR2 (human)): 83%; kinase still bound, per cent of control (RPS6KA5 KD2 (human)): 91%; kinase still bound, per cent of control (SIK2 (human)): 100%; kinase still bound, per cent of control (EPHA4 (human)): 93%; kinase still bound, per cent of control (LIMK2 (human)): 100%; kinase still bound, per cent of control (TGFBR2 (human)): 95%; kinase still bound, per cent of control (FLT3 (human)): 13%; kinase still bound, per cent of control (PLK3 (human)): 89%; kinase still bound, per cent of control (STK11 (human)): 98%; kinase still bound, per cent of control (MAPK7 (human)): 100%
CCN1CCN(Cc2ccc(Nc3ncc4c(n3)N(C)c3ccccc3C(=O)N4C)cc2C(F)(F)F)CC1	47%	0.5%	100%	100%	92%	58%	100%	20%	8.2%	29%	70%	100%	0%	74%	78%	0.4%	53%	100%	19%	92%	kinase still bound, per cent of control (DCLK1 (human)): 4.4%; kinase still bound, per cent of control (PAK7 (human)): 81%; kinase still bound, per cent of control (PKMYT1 (human)): 100%; kinase still bound, per cent of control (ADCK3 (human)): 78%; kinase still bound, per cent of control (CAMK2G (human)): 81%; kinase still bound, per cent of control (TLK1 (human)): 74%; kinase still bound, per cent of control (MAP2K3 (human)): 74%; kinase still bound, per cent of control (MAP3K7 (human)): 17%; kinase still bound, per cent of control (EPHA7 (human)): 100%; kinase still bound, per cent of control (BRSK1 (human)): 41%; kinase still bound, per cent of control (DDR2 (human)): 50%; kinase still bound, per cent of control (RPS6KA5 KD2 (human)): 100%; kinase still bound, per cent of control (SIK2 (human)): 24%; kinase still bound, per cent of control (EPHA4 (human)): 100%; kinase still bound, per cent of control (LIMK2 (human)): 85%; kinase still bound, per cent of control (TGFBR2 (human)): 94%; kinase still bound, per cent of control (FLT3 (human)): 100%; kinase still bound, per cent of control (PLK3 (human)): 100%; kinase still bound, per cent of control (STK11 (human)): 89%; kinase still bound, per cent of control (MAPK7 (human)): 0.1%
